Consider 17 molecules from patent US10919869B2, “Thiazole derivative and applications” (EAST CHINA UNIVERSITY OF SCIENCE AND TECHNOLOGY, priority 2016, dated 2021).

hsDHODH, sequence (Q02127 whole entry): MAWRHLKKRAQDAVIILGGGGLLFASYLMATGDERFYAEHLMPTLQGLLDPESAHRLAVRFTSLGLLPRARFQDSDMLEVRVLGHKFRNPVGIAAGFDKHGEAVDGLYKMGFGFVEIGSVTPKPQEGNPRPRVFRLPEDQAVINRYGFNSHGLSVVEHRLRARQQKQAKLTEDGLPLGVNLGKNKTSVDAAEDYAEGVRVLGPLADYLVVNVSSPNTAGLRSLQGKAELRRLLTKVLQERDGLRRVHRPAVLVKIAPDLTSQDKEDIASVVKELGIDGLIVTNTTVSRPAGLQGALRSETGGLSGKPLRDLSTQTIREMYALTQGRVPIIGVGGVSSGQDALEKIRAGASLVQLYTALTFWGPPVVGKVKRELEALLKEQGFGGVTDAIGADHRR

The test deals with hsDHODH (Homo sapiens (Human), UniProt Q02127). The experiment in a line: Activity test at enzyme level: DHODH inhibition, DCIP absorbance at 600 nm. The class given is biochemical. The note with it: purified DHODH 10 nM, DHO 500 μM, CoQ 100 μM, DCIP 120 μM; read-out: IC50 (μM) hsDHODH. As to the method:
Culture and Purification of hsDHODH Protein
The correctly sequenced recombinant plasmid pET-19b-DHODH was transformed into competent E. coli BL21 (DE3), and cultured on LB plate containing ampicillin. Colonies were randomly selected, inoculated into LB medium containing […], and incubate overnight at 37° C., 230 rpm. The cells were inoculated at a ratio of 1:200 in 500 mL of LB medium containing […] and expanded at 37° C., 230 rpm. When the OD value of the cells reached 0.8-1, IPTG was added into the medium to a final concentration of IPDG of 0.5 mM, and expression was induced overnight at 25° C. The induced cells were collected by centrifugation at […], 4° C., washed with deionized water, and centrifuged again to collect the bacterial pellet, which was stored at −80° C.
Purification of protein: cells were re-suspended in lysis liquid containing 50 mM HEPES (pH 8.0), 0.15 M NaCl, 10 mM imidazole, 10% glycerol, 0.1% Triton X-100, and a small amount of soy protease inhibitor added. After re-suspended and mixed homogeneously, cells were ultrasonically disrupted. The disruption solution was centrifuged for 30 min, and the supernatant and precipitate were taken for protein electrophoresis to determine the form of protein. The supernatant was loaded onto a Ni-NTA column, and the pass-through liquid was collected, and then the resin was washed for 3-4 times with a lysis liquid containing 20 mM imidazole, and finally eluted with a lysis liquid containing 300 mM imidazole. After elution, protein solution was collected. 10 μL of the above protein sample was taken for SDS-PAGE electrophoresis to determine the content of target protein. Finally, the eluted protein solution is dialyzed in the dialysis liquid to remove imidazole, thereby obtaining a pure protein.
Method for Testing Activities of Compounds at Enzyme Level
Principles of activity test at enzyme level: firstly, dihydroorotate (DHO) is oxidatively dehydrogenated by DHODH to form orotic acid (Orotate, OA), accompanied by reduction of Flavin mononucleotide (FMN) into reduced flavin mononucleotide (FMNH2) by accepting 2H+ and 2e−, then coenzyme Q (CoQ) as hydrogen acceptor accepting electron and proton from FMNH2 is reduced into reduced coenzyme Q (CoQH2), reduced coenzyme Q transfers electrons to a chromogenic substrate, […] (DCIP), and finally DCIP was reduced. […] The degree to which the substrate DHO is oxidized can be judged based on the degree of decrease in absorbance. The degree of oxidation of the substrate DHO per unit time is the initial rate of the enzymatic reaction. Upon addition of a inhibitor, the initial rate of the enzymatic reaction is reduced.
Substrate DHO was added to start the reaction with a DHO final concentration of 500 μM. The absorbance was read at 600 nm using a BioTek microplate reader and read every 30 s for 6 min. […] For calculating IC50 of a compound, Origin 8.0 was used to test the inhibition rate at least 8 concentrations.
What is called IC50 is the concentration at which inhibition is half-maximal. Turning to `CCCN(/N=C/c1ccccc1C(=O)O)c1nc(-c2ccccc2Cl)cs1` [Compound 3, (E)-4-(2-chlorophenyl)-2-[1-propyl-2-(2-carboxybenzylidene)hydrazino]thiazole], the half-inhibitory concentration (IC50) was determined as 0.0086 ± 0.0001 µM.
The figure for `CCCC(C)N(/N=C/c1ccccc1C(=O)O)c1nc(-c2ccccc2Cl)cs1` (centres unmarked) [Compound 6, (E)-4-(2-chlorophenyl)-2-[1-(2-amyl)-2-(2-carboxybenzylidene)hydrazino]thiazole] is 0.0191 ± 0.0006 µM; for `CN(/N=C/c1ccc(C(F)(F)F)cc1C(=O)O)c1nc(-c2ccccc2Cl)cs1` [Compound 8, (E)-4-(2-chlorophenyl)-2-[1-methyl-2-(4-trifluoromethyl-2-carboxybenzylidene)hydrazino]thiazole] it is 0.0868 ± 0.0009 µM.
On to `Cc1ccc(/C=N/N(C)c2nc(-c3ccccc3Cl)cs2)c(C(=O)O)c1` [Compound 9, (E)-4-(2-chlorophenyl)-2-[1-methyl-2-(4-methyl-2-carboxybenzylidene)hydrazino]thiazole], for which the 50% inhibitory concentration (IC50) came to 0.0084 ± 0.0001 µM.
Then `CN(/N=C/c1ccc(F)cc1C(=O)O)c1nc(-c2ccccc2Cl)cs1` [Compound 10, (E)-4-(2-chlorophenyl)-2-[1-methyl-2-(2-carboxyl-4-fluorobenzylidene)hydrazino]thiazole], with 0.0018 ± 0.0001 µM; and `Cc1ccc(/C=N/N(C)c2nc(-c3ccccc3)c(C)s2)c(C(=O)O)c1` [Compound 11, (E)-5-methyl-4-phenyl-2-[1-methyl-2-(4-methyl-2-carboxybenzylidene)hydrazino]thiazole], with 0.0136 ± 0.0005 µM.
The figure for `Cc1sc(N(C)/N=C/c2ccccc2C(=O)O)nc1-c1ccccc1` [Compound 12, (E)-5-methyl-4-phenyl-2-[1-methyl-2-(2-carboxybenzylidene)hydrazino]thiazole] is 0.0088 ± 0.0001 µM.
The figure for `CCc1sc(N/N=C/c2ccccc2C(=O)O)nc1-c1ccccc1Cl` [Compound 14, (E)-5-ethyl-4-(2-chlorophenyl)-2-(2-carboxylbenzylidenehydrazino)thiazole] is 0.356 ± 0.0064 µM; for `Cc1sc(N/N=C/c2ccccc2C(=O)O)nc1-c1ccccc1Cl` [Compound 15, (E)-5-methyl-4-(2-chlorophenyl)-2-(2-carboxylbenzylidenehydrazino)thiazole] it is 0.0662 ± 0.0002 µM.
For the molecule `Cc1sc(N/N=C/c2ccccc2C(=O)O)nc1-c1ccccc1` [Compound 17, (E)-5-methyl-4-phenyl-2-(2-carboxylbenzylidenehydrazino)thiazole], the IC50 came out at 0.0811 ± 0.0001 µM.
Then `CN(/N=C/c1ccccc1C(=O)O)c1nc(-c2cc(Cl)ccc2Cl)cs1` [Compound 19, (E)-4-(2,5-dichlorophenyl)-2-[1-methyl-2-(2-carboxybenzylidene)hydrazino]thiazole], with 0.0282 µM.
Turning to `CN(/N=C/c1ccccc1C(=O)O)c1nc(-c2ccccc2)cs1` [Compound 20, (E)-4-phenyl-2-[1-methyl-2-(2-carboxybenzylidene)hydrazino]thiazole], the IC50 was 0.0244 ± 0.0005 µM.
The figure for `CN(/N=C/c1ccccc1C(=O)O)c1nc(-c2cccc(Cl)c2)cs1` [Compound 21, (E)-4-(3-chlorophenyl)-2-[1-methyl-2-(2-carboxybenzylidene)hydrazino]thiazole] is 0.0106 µM.
The figure for `CCCC(C)N(/N=C/c1ccccc1C(=O)O)c1nc(-c2ccccc2Cl)c(C)s1` (centres unmarked) [Compound 22, (E)-5-methyl-4-(2-chlorophenyl)-2-[1-(2-amyl)-2-(2-carboxybenzylidene)hydrazino]thiazole] is 0.0154 ± 0.0002 µM; for `CN(/N=C/c1cc(F)c(F)cc1C(=O)O)c1nc(-c2ccccc2Cl)cs1` [Compound 23] it is 0.0044 µM.
The figure for `CN(/N=C/c1cc(O)c(F)cc1C(=O)O)c1nc(-c2ccccc2Cl)cs1` [Compound 24] is 0.0214 ± 0.0005 µM; for `CN(/N=C/c1cc(N)c(F)cc1C(=O)O)c1nc(-c2ccccc2Cl)cs1` [Compound 25] it is 0.0316 ± 0.0001 µM.
